Some test systems named below: ACHN renal; CAKI-1 renal; HL-60(TB) leukemia; K-562 leukemia; NCI-H23 lung; OVCAR-3 ovarian; OVCAR-5 ovarian; OVCAR-8 ovarian; RXF 393 renal; SF-268 CNS; SF-295 CNS; SK-MEL-28 melanoma; SK-MEL-5 melanoma; SK-OV-3 ovarian; SNB-19 CNS; TK-10 renal; SNB-75 CNS; DU-145 prostate.
Holding throughout (experiment): NCI tumour cell line growth inhibition, 48 h

This is an account of results in PubChem BioAssay (NCI).

Molecules are shown by their SMILES.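 96-well plates; 48 h exposure; 5 concentrations. Endpoints by linear interpolation between flanking doses. Not reached: highest tested concentration assigned. At the TGI there is no net growth.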

For the molecule `CCC12CCCNC1c1c(n(C)c3ccccc13)C(C(=O)OC)C2` (centres undefined), the TGI was 257 µM with ACHN renal; 77.3 µM with CAKI-1 renal; above 275 µM in the experiment on HL-60(TB) leukemia; above 275 µM with K-562 leukemia; 252 µM with NCI-H23 lung; 91.1 µM in the experiment on OVCAR-3 ovarian. The TGI in the experiment on OVCAR-5 ovarian was 208 µM; with OVCAR-8 ovarian, above 275 µM; in the experiment on RXF 393 renal, 153 µM; in the experiment with SF-268 CNS, above 275 µM; in the experiment on SF-295 CNS, 124 µM; in the experiment with SK-MEL-28 melanoma, above 275 µM. Further, the TGI is 82.5 µM with SK-MEL-5 melanoma, 186 µM with SK-OV-3 ovarian, above 275 µM in the experiment on SNB-19 CNS and above 275 µM in the experiment with TK-10 renal.

`Cc1ccc2c(c1)C1(OC(=O)c3ccccc31)c1ccc(F)cc1O2` (centres undefined): the TGI was above 100 µM in the experiment on CAKI-1 renal; 51 µM with HL-60(TB) leukemia; above 100 µM in the experiment with K-562 leukemia; above 100 µM in the experiment on OVCAR-3 ovarian; above 100 µM in the experiment with OVCAR-5 ovarian; above 100 µM in the experiment with OVCAR-8 ovarian. In addition, the TGI with SF-268 CNS, in the experiment with SK-MEL-5 melanoma, with SK-OV-3 ovarian and with TK-10 renal was above 100 µM in each case.

Take `CC(Oc1ccc(OCC2CCCCC2)cc1)C(=O)NCCO` (centres undefined): the TGI in the experiment on ACHN renal, in the experiment with HL-60(TB) leukemia, with K-562 leukemia, in the experiment on NCI-H23 lung, in the experiment with OVCAR-3 ovarian and in the experiment on OVCAR-8 ovarian was above 100 µM each time. Besides, the TGI with RXF 393 renal, in the experiment with SF-268 CNS, in the experiment on SF-295 CNS, with SK-MEL-28 melanoma, in the experiment on SK-MEL-5 melanoma and in the experiment on SK-OV-3 ovarian was above 100 µM throughout. The TGI in the experiment with SNB-19 CNS, in the experiment with SNB-75 CNS and in the experiment with TK-10 renal was above 100 µM throughout.

In the case of `O=C(OC[C@H]1C[C@H]2C(=O)CCC[C@H]2O1)c1ccccc1`, the TGI with ACHN renal, with CAKI-1 renal, in the experiment with DU-145 prostate, with HL-60(TB) leukemia, in the experiment on K-562 leukemia and in the experiment with NCI-H23 lung was above 100 µM throughout. Also, the TGI in the experiment on OVCAR-3 ovarian, in the experiment on OVCAR-5 ovarian, in the experiment with OVCAR-8 ovarian, in the experiment with SF-268 CNS, in the experiment with SF-295 CNS and with SK-MEL-28 melanoma was above 100 µM in each case. Besides, the TGI in the experiment on SK-MEL-5 melanoma, in the experiment on SK-OV-3 ovarian, with SNB-19 CNS, with SNB-75 CNS and in the experiment with TK-10 renal was above 100 µM throughout.

On to `COC(CC1(/C=C/O[Si](C(C)C)(C(C)C)C(C)C)C(=O)N(COCC[Si](C)(C)C)c2ccccc21)OC` (centres undefined), for which the TGI with ACHN renal was above 100 µM; in the experiment with CAKI-1 renal it was above 100 µM; in the experiment on DU-145 prostate it was above 100 µM; in the experiment on K-562 leukemia, above 100 µM; with NCI-H23 lung, above 100 µM; in the experiment on OVCAR-3 ovarian it was 38.3 µM. Besides, the TGI in the experiment with OVCAR-5 ovarian is above 100 µM; in the experiment on OVCAR-8 ovarian it was above 100 µM; with RXF 393 renal, 29.5 µM; in the experiment with SF-268 CNS it was 38.4 µM; in the experiment on SF-295 CNS, 22.5 µM; with SK-MEL-28 melanoma, 60 µM. For the same molecule, the TGI in the experiment with SK-MEL-5 melanoma was above 100 µM; in the experiment on SK-OV-3 ovarian it was 51.2 µM; in the experiment with SNB-19 CNS, above 100 µM; in the experiment on SNB-75 CNS, above 100 µM; in the experiment on TK-10 renal it was above 100 µM.

As to `O=C(Nc1nc(C23CC4CC(CC(C4)C2)C3)cs1)c1cc2cc(Cl)ccc2oc1=O`, the TGI in the experiment on ACHN renal, with CAKI-1 renal, with DU-145 prostate, in the experiment on HL-60(TB) leukemia, with K-562 leukemia and with NCI-H23 lung was above 100 µM each time. The TGI with OVCAR-3 ovarian, in the experiment with OVCAR-5 ovarian, in the experiment on OVCAR-8 ovarian, in the experiment on RXF 393 renal, in the experiment with SF-295 CNS and in the experiment on SK-MEL-28 melanoma was above 100 µM in each case. For the same molecule, the TGI in the experiment on SK-MEL-5 melanoma, in the experiment with SNB-19 CNS, in the experiment with SNB-75 CNS and in the experiment on TK-10 renal was above 100 µM throughout.

For `CC1CCCCN1CC(=O)c1ccc2c(c1)Sc1ccccc1O2` (centres undefined), the TGI in the experiment on ACHN renal is 28.8 µM; in the experiment on CAKI-1 renal it was 37.5 µM; in the experiment with DU-145 prostate it was 67.8 µM; with HL-60(TB) leukemia, 47 µM; with K-562 leukemia, above 100 µM; in the experiment on NCI-H23 lung it was 30.3 µM. Further, the TGI with OVCAR-3 ovarian stood at 27.8 µM; in the experiment on OVCAR-5 ovarian, 34.5 µM; in the experiment with OVCAR-8 ovarian it was 30.8 µM; in the experiment with RXF 393 renal it was 31.1 µM; in the experiment with SF-268 CNS, 34.2 µM; in the experiment on SF-295 CNS it was 33 µM. For the same molecule, the TGI in the experiment with SK-MEL-28 melanoma came out at 33.1 µM; in the experiment on SK-OV-3 ovarian it was 31.6 µM; in the experiment with SNB-19 CNS, 36 µM; in the experiment with SNB-75 CNS, 22.9 µM; in the experiment with TK-10 renal, 42.5 µM.

As to `Cc1cc2oc(-c3ccccc3)c(C)c(=O)c2c2c1OC(C)(C)S2`, the TGI in the experiment with ACHN renal is above 100 µM; in the experiment on HL-60(TB) leukemia, 38.4 µM; in the experiment with K-562 leukemia, above 100 µM; with NCI-H23 lung, above 100 µM; in the experiment with OVCAR-3 ovarian, above 100 µM; in the experiment with OVCAR-5 ovarian it was above 100 µM. Also, the TGI with OVCAR-8 ovarian, in the experiment on RXF 393 renal, in the experiment on SF-268 CNS, in the experiment with SF-295 CNS, with SK-MEL-28 melanoma and with SK-MEL-5 melanoma was above 100 µM throughout. In addition, the TGI in the experiment on SK-OV-3 ovarian, with SNB-19 CNS, with SNB-75 CNS and in the experiment with TK-10 renal was above 100 µM throughout.

Regarding `CCOC(=O)C1C(c2ccc(O)c(OC)c2)c2c([nH][nH]c2=O)CC1(C)O` (centres undefined), the TGI with ACHN renal, in the experiment with CAKI-1 renal, in the experiment on DU-145 prostate, in the experiment on HL-60(TB) leukemia, in the experiment with NCI-H23 lung and in the experiment with OVCAR-3 ovarian was above 100 µM in each case. Moreover, the TGI with OVCAR-5 ovarian, with OVCAR-8 ovarian, in the experiment on SF-268 CNS, with SF-295 CNS, in the experiment on SK-MEL-28 melanoma and with SK-MEL-5 melanoma was above 100 µM throughout. In addition, the TGI in the experiment with SNB-19 CNS, with SNB-75 CNS and in the experiment on TK-10 renal was above 100 µM each time.
